From ChEMBL document CHEMBL3045835, “Comparative study of conventional and microwave-assisted synthesis of some Schiff bases and their potential as antimicrobial agents” (2012)
Converted amounts (≈) assume the structure as drawn.

Legend:
Type in all cases: functional
Penicillium chrysogenum [1] = assay: Antifungal activity against Penicillium chrysogenum MTCC 161 after 24 hr by broth dilution method; conditions: MTCC 161, 24 h
Micrococcus luteus [2] = assay: Antibacterial activity against Micrococcus luteus MTCC 1538 at 1500 ug/ml after 18 hr by cup-plate method; conditions: MTCC 1538, 18 h, read-out: DIZ
Pseudomonas aeruginosa [3] = assay: Antibacterial activity against Pseudomonas aeruginosa MTCC 424 at 500 ug/ml after 18 hr by cup-plate method; conditions: MTCC 424, 18 h, read-out: DIZ
Pseudomonas fluorescens [4] = assay: Antibacterial activity against Pseudomonas fluorescens MTCC 2421 at 200 ug/ml after 18 hr by cup-plate method; conditions: MTCC 2421, 18 h, read-out: DIZ
Aspergillus niger [5] = assay: Antifungal activity against Aspergillus niger MTCC 2546 at 100 ug/ml after 18 hr by cup-plate method; conditions: MTCC 2546, 18 h, read-out: DIZ
Micrococcus luteus [6] = assay: Antibacterial activity against Micrococcus luteus MTCC 1538 at 100 ug/ml after 18 hr by cup-plate method; conditions: MTCC 1538, 18 h, read-out: DIZ
Bacillus subtilis [7] = assay: Antibacterial activity against Bacillus subtilis MTCC 441 at 200 ug/ml after 18 hr by cup plate method; conditions: MTCC 441, 18 h, read-out: DIZ
Micrococcus luteus [8] = assay: Antibacterial activity against Micrococcus luteus MTCC 1538 at 500 ug/ml after 18 hr by cup-plate method; conditions: MTCC 1538, 18 h, read-out: DIZ
Pseudomonas aeruginosa [9] = assay: Antibacterial activity against Pseudomonas aeruginosa MTCC 424 after 24 hr by broth dilution method; conditions: MTCC 424, 24 h
Bacillus pumilus [10] = assay: Antibacterial activity against Bacillus pumilus MTCC 1456 at 500 ug/ml after 18 hr by cup-plate method; conditions: MTCC 1456, 18 h, read-out: DIZ
Staphylococcus aureus [11] = assay: Antibacterial activity against Staphylococcus aureus MTCC 1430 at 1500 ug/ml after 18 hr by cup-plate method; conditions: MTCC 1430, 18 h, read-out: DIZ
Escherichia coli [12] = assay: Antibacterial activity against Escherichia coli MTCC 1573 at 100 ug/ml after 18 hr by cup-plate method; conditions: MTCC 1573, 18 h, read-out: DIZ
Micrococcus luteus [13] = assay: Antibacterial activity against Micrococcus luteus MTCC 1538 at 1000 ug/ml after 18 hr by cup-plate method; conditions: MTCC 1538, 18 h, read-out: DIZ
Bacillus subtilis [14] = assay: Antibacterial activity against Bacillus subtilis MTCC 441 after 24 hr by broth dilution method; conditions: MTCC 441, 24 h
Pseudomonas fluorescens [15] = assay: Antibacterial activity against Pseudomonas fluorescens MTCC 2421 after 24 hr by broth dilution method; conditions: MTCC 2421, 24 h
Bacillus pumilus [16] = assay: Antibacterial activity against Bacillus pumilus MTCC 1456 after 24 hr by broth dilution method; conditions: MTCC 1456, 24 h
Staphylococcus aureus [17] = assay: Antibacterial activity against Staphylococcus aureus MTCC 1430 at 1000 ug/ml after 18 hr by cup-plate method; conditions: MTCC 1430, 18 h, read-out: DIZ
Aspergillus niger [18] = assay: Antifungal activity against Aspergillus niger MTCC 2546 at 200 ug/ml after 18 hr by cup-plate method; conditions: MTCC 2546, 18 h, read-out: DIZ
Staphylococcus aureus [19] = assay: Antibacterial activity against Staphylococcus aureus MTCC 1430 at 500 ug/ml after 18 hr by cup-plate method; conditions: MTCC 1430, 18 h, read-out: DIZ
Pseudomonas aeruginosa [20] = assay: Antibacterial activity against Pseudomonas aeruginosa MTCC 424 at 1500 ug/ml after 18 hr by cup-plate method; conditions: MTCC 424, 18 h, read-out: DIZ
Bacillus subtilis [21] = assay: Antibacterial activity against Bacillus subtilis MTCC 441 at 1500 ug/ml after 18 hr by cup plate method; conditions: MTCC 441, 18 h, read-out: DIZ
Aspergillus niger [22] = assay: Antifungal activity against Aspergillus niger MTCC 2546 after 24 hr by broth dilution method; conditions: MTCC 2546, 24 h
Bacillus subtilis [23] = assay: Antibacterial activity against Bacillus subtilis MTCC 441 at 500 ug/ml after 18 hr by cup plate method; conditions: MTCC 441, 18 h, read-out: DIZ
Escherichia coli [24] = assay: Antibacterial activity against Escherichia coli MTCC 1573 at 500 ug/ml after 18 hr by cup-plate method; conditions: MTCC 1573, 18 h, read-out: DIZ
Penicillium chrysogenum [25] = assay: Antifungal activity against Penicillium chrysogenum MTCC 161 at 1000 ug/ml after 18 hr by cup-plate method; conditions: MTCC 161, 18 h, read-out: DIZ
Escherichia coli [26] = assay: Antibacterial activity against Escherichia coli MTCC 1573 at 1000 ug/ml after 18 hr by cup-plate method; conditions: MTCC 1573, 18 h, read-out: DIZ

C(=N\c1nc[nH]n1)/c1ccco1
MIC (Penicillium chrysogenum [1]): 500 µg/mL (≈ 3080 µM) | zone of inhibition at 1500 µg/mL (Micrococcus luteus [2]): 22 mm | zone of inhibition at 500 µg/mL (Pseudomonas aeruginosa [3]): 13 mm | zone of inhibition at 200 µg/mL (Pseudomonas fluorescens [4]): 16 mm | zone of inhibition at 100 µg/mL (Aspergillus niger [5]): 11 mm | zone of inhibition at 100 µg/mL (Micrococcus luteus [6]): 12 mm | zone of inhibition at 200 µg/mL (Bacillus subtilis [7]): 15 mm | zone of inhibition at 500 µg/mL (Micrococcus luteus [8]): 18 mm | MIC (Pseudomonas aeruginosa [9]): 500 µg/mL (≈ 3080 µM) | zone of inhibition at 500 µg/mL (Bacillus pumilus [10]): 16 mm | zone of inhibition at 1500 µg/mL (Staphylococcus aureus [11]): 18 mm | zone of inhibition at 100 µg/mL (Escherichia coli [12]): 10 mm | zone of inhibition at 1000 µg/mL (Micrococcus luteus [13]): 21 mm | MIC (Bacillus subtilis [14]): 300 µg/mL (≈ 1850 µM) | MIC (Pseudomonas fluorescens [15]): 300 µg/mL (≈ 1850 µM) | MIC (Bacillus pumilus [16]): 300 µg/mL (≈ 1850 µM) | zone of inhibition at 1000 µg/mL (Staphylococcus aureus [17]): 15 mm | zone of inhibition at 200 µg/mL (Aspergillus niger [18]): 16 mm | zone of inhibition at 500 µg/mL (Staphylococcus aureus [19]): 14 mm | zone of inhibition at 1500 µg/mL (Pseudomonas aeruginosa [20]): 21 mm | zone of inhibition at 1500 µg/mL (Bacillus subtilis [21]): 22 mm | MIC (Aspergillus niger [22]): 500 µg/mL (≈ 3080 µM) | zone of inhibition at 500 µg/mL (Bacillus subtilis [23]): 16 mm | zone of inhibition at 500 µg/mL (Escherichia coli [24]): 14 mm | zone of inhibition at 1000 µg/mL (Penicillium chrysogenum [25]): 18 mm | zone of inhibition at 1000 µg/mL (Escherichia coli [26]): 15 mm
